# Reference: ChEMBL document CHEMBL1139706, “Novel thienopyrrole glycogen phosphorylase inhibitors: synthesis, in vitro SAR and crystallographic studies” (Bioorg Med Chem Lett, 2006)
# Biological target: T1, Glycogen phosphorylase, liver form (Homo sapiens, UniProt P06737)
# T1 sequence (P06737 whole entry): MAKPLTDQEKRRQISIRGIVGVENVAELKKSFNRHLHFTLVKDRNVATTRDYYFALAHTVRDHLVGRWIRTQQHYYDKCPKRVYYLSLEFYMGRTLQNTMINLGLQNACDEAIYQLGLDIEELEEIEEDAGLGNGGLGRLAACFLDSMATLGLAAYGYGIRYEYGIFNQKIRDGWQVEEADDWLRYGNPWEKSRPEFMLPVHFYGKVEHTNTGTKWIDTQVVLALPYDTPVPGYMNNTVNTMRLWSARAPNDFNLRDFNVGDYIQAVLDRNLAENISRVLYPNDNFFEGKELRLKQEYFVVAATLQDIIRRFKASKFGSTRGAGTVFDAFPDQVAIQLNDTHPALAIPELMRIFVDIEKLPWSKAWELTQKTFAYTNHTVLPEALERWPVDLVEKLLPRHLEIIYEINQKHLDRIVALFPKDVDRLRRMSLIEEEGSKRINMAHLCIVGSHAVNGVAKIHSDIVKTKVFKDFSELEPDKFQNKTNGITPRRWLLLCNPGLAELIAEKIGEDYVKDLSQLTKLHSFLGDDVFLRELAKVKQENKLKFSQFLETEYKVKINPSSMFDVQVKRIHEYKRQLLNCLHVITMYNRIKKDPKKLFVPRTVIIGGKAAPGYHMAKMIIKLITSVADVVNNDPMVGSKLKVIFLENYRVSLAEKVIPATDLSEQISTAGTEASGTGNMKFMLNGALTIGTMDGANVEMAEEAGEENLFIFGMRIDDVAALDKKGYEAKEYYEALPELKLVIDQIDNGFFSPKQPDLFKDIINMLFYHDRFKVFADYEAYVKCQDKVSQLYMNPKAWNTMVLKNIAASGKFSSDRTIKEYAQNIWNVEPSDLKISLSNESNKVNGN
# Experiment: Inhibition of recombinant human liver GPa by multienzyme coupled assay
row,IC50,SMILES
1,> 10000 nM,CN(C)C(=O)[C@H](Cc1ccccc1)N(C)C(=O)c1cc2sc(Br)c(Br)c2[nH]1
2,49 nM,O=C(N[C@@H]1Cc2ccc(F)cc2[C@H]1O)c1cc2sc(Cl)c(Cl)c2[nH]1
3,23 nM,CN(C)C(=O)[C@H](Cc1ccccc1)NC(=O)c1cc2sc(Br)c(Br)c2[nH]1
4,> 10000 nM,CN(C)C(=O)[C@H](Cc1ccccc1)NC(=O)c1cc2sc(Br)c(Br)c2n1C
5,86 nM,O=C(NC1Cc2ccccc2NC1=O)c1cc2cc(Cl)ccc2[nH]1 (configuration not stated)
6,90 nM,O=C(N[C@@H]1Cc2ccc(Cl)cc2[C@H]1O)c1cc2sc(Cl)c(Cl)c2[nH]1
7,806 nM,O=C(NC1Cc2ccccc2C1)c1cc2cc(Cl)sc2[nH]1
8,577 nM,CNC(=O)[C@H](Cc1ccccc1)NC(=O)c1cc2sc(Cl)cc2[nH]1
9,5 nM,CN(C)C(=O)[C@H](Cc1ccccc1)NC(=O)c1cc2sc(Cl)c(Cl)c2[nH]1
10,197 nM,O=C(NC1Cc2ccccc2C1)c1cc2sc(Cl)c(Cl)c2[nH]1
11,9 nM,O=C(N[C@@H]1Cc2ccccc2[C@H]1O)c1cc2sc(Cl)c(Cl)c2[nH]1
12,31 nM,CN(C)C(=O)[C@H](Cc1ccccc1)NC(=O)c1cc2cc(Br)sc2[nH]1
13,17 nM,CN(C)C(=O)[C@H](Cc1ccccc1)NC(=O)c1cc2cc(Cl)sc2[nH]1
14,51 nM,CN(C)C(=O)[C@H](Cc1ccccc1)NC(=O)c1cc2cc(Cl)ccc2[nH]1
15,390 nM,CNC(=O)[C@H](Cc1ccccc1)NC(=O)c1cc2scc(Cl)c2[nH]1

row,SMILES,IC50
1,CN(C)C(=O)[C@H](Cc1ccccc1)NC(=O)c1cc2ccsc2[nH]1,2310 nM

# Biological target: T2, Glycogen phosphorylase, liver form (Homo sapiens) (UniProt P06737)
# T2 sequence (whole entry): T1 sequence (P06737 whole entry)
# Experiment: Inhibition of recombinant human liver GPa by multienzyme coupled assay at 100 uM
row,inhibition,SMILES
1,35%,CN(C)C(=O)[C@H](Cc1ccccc1)NC(=O)c1cc2sccc2[nH]1

# Biological target: T2, Glycogen phosphorylase, liver form (Homo sapiens)
# Experiment: Inhibition of recombinant human liver GPa by multienzyme coupled assay at 10 uM
row,inhibition,SMILES
1,20%,CN(C)C(=O)[C@H](Cc1ccccc1)NC(=O)c1cc2c(Br)c(Br)sc2[nH]1

# System: Hepatocyte
# Experiment: Inhibition of glucose output in glucagon challenged rat hepatocytes
# Assay type: functional, cell-based
row,SMILES,IC50
1,O=C(N[C@@H]1Cc2ccc(F)cc2[C@H]1O)c1cc2sc(Cl)c(Cl)c2[nH]1,1300 nM
2,O=C(N[C@@H]1Cc2ccccc2[C@H]1O)c1cc2cc(Cl)sc2[nH]1,3600 nM
3,CN(C)C(=O)[C@H](Cc1ccccc1)NC(=O)c1cc2sc(Br)c(Br)c2n1C,1100 nM
4,O=C(NC1Cc2ccccc2NC1=O)c1cc2cc(Cl)ccc2[nH]1 (configuration not stated),7000 nM
5,CN(C)C(=O)[C@H](Cc1ccccc1)NC(=O)c1cc2sc(Cl)c(Cl)c2[nH]1,1000 nM
6,O=C(N[C@@H]1Cc2ccccc2[C@H]1O)c1cc2sc(Cl)c(Cl)c2[nH]1,1500 nM
7,CN(C)C(=O)[C@H](Cc1ccccc1)NC(=O)c1cc2cc(Br)sc2[nH]1,1600 nM
8,CN(C)C(=O)[C@H](Cc1ccccc1)NC(=O)c1cc2cc(Cl)sc2[nH]1,1400 nM
9,CN(C)C(=O)[C@H](Cc1ccccc1)NC(=O)c1cc2cc(Cl)ccc2[nH]1,2600 nM
